Results published in ChEMBL document CHEMBL3091308, “Bisindole alkaloids with neural anti-inflammatory activity from Gelsemium elegans” (J Nat Prod, 2013).
pIC50: −log10 of the molar value.

Experiments:
[1] = (§1) Antiinflammatory activity in […] cells assessed as inhibition of LPS-induced NO production measured 24 hrs post LPS-challenge by spectrophotometry; format: functional, cell-based; settings: BV-2, 24 h
[2] = Cytotoxicity against human Bel7402 cells at 10 uM after 72 hrs by MTT assay; format: cell-based; settings: bel-7402, 72 h
[3] = Cytotoxicity against […] cells at 50 uM after 72 hrs by MTT assay; format: cell-based; settings: bv-2, 72 h
[4] = tested on: A549; assay: Cytotoxicity against human A549 cells at 10 uM after 72 hrs by MTT assay; format: cell-based; settings: a549, 72 h
[5] = tested on: RAW; assay: Cytotoxicity against mouse RAW cells at 50 uM after 72 hrs by MTT assay; format: cell-based
[6] = Cytotoxicity against human HCT8 cells at 10 uM after 72 hrs by MTT assay; format: cell-based; settings: hct-8, 72 h
[7] = Cytotoxicity against human BGC823 cells at 10 uM after 72 hrs by MTT assay; format: cell-based; settings: bgc-823, 72 h
[8] = tested on: A2780; assay: Cytotoxicity against human A2780 cells at 10 uM after 72 hrs by MTT assay; format: cell-based; settings: a2780, 72 h
[9] = tested on: BV-2; assay: as §1; format: functional, cell-based

SMILES | pIC50 [1] | Activity [2] | Activity [3] | Activity [4] | Activity [5] | Activity [6] | Activity [7] | Activity [8] | inhibition [9]
COc1cc(/C=C/C(=O)CC(=O)/C=C/c2ccc(O)c(OC)c2)ccc1O [CURCUMIN] | 5.41 |  |  |  |  |  |  |  | 
CON1C(=O)[C@@]2(C[C@@H]3N=C([C@@](C)(O)C[C@@H](C)[C@@]45ON4[C@H]4C[C@@]6(C(=O)N(OC)c7ccccc76)[C@H]6C[C@@H]5[C@@H]4CO6)[C@@H]4C[C@H]2OC[C@H]34)c2ccccc21 (some centres undefined) |  | Non-toxic | Non-toxic | Non-toxic | Non-toxic | Non-toxic | Non-toxic | Non-toxic | 
C/C=C1\CN2C(=O)[C@]3(c4cc(-c5cc([C@@]67C[C@H]8[C@H]9CO[C@@H]6C[C@H]9/C(=C/C)CN8C7=O)c(N)cc5OC)c(OC)cc4N)C[C@H]2[C@H]2CO[C@@H]3C[C@@H]12 |  | Non-toxic | Non-toxic | Non-toxic | Non-toxic | Non-toxic | Non-toxic | Non-toxic | 
CON1C(=O)[C@@]2(C[C@@H]3N=C([C@](C)(O)C[C@@H](C)[C@@]45ON4[C@H]4C[C@@]6(C(=O)N(OC)c7ccccc76)[C@H]6C[C@@H]5[C@@H]4CO6)[C@@H]4C[C@H]2OC[C@H]34)c2ccccc21 (some centres undefined) | 4.99 | Non-toxic | Non-toxic | Non-toxic | Non-toxic | Non-toxic | Non-toxic | Non-toxic | Dose-dependent effect
